ChEMBL document CHEMBL5543121, “Drug Repurposing of ACT001 to Discover Novel Promising Sulfide Prodrugs with Improved Safety and Potent Activity for Neutrophil-Mediated Antifungal Immunotherapy” (J Med Chem, 2024)
Calls of active or inactive are those of the source. The rule behind the calls is not given here.

Experiments:
Neutrophil [1] = test: Induction of neutrophil-mediated antifungal immunity against Candida albicans SC5314 infected in mouse assessed as increase in neutrophil infiltration in kidney at 50 to 100 mg/kg, po administered once a day for 3 days; format: functional, organism-based; details: dose 50-100 mg/kg, time 3.0 day
[2] = Subacute toxicity in C57BL/6 mouse assessed as signs of morbidity at 100 mg/kg, po administered daily for 14 days and measured every day; format: organism-based; details: in vivo, 336 h, time 14 day
Neutrophil [3] = test: Induction of apoptosis in mouse neutrophils assessed as dead cells at 20 uM incubated for 16 hrs by Annexin V-FITC/PI staining based flow cytometry analysis (reference value: 2.04%); format: toxicity, cell-based
[4] = Subacute toxicity in C57BL/6 mouse assessed as change in lung weight at 100 mg/kg, po administered daily for 14 days; format: organism-based; details: in vivo, 336 h, time 14 day
[5] = Subacute toxicity in C57BL/6 mouse assessed as histopathological changes in lung at 100 mg/kg, po administered daily for 14 days; format: organism-based; details: in vivo, 336 h, time 14 day
[6] = Acute toxicity in C57BL/6 mouse assessed as change in spleen weight at 500 mg/kg, po administered as single dose and measured after 14 days; format: organism-based; details: in vivo, 336 h, time 14 day
[7] = Acute toxicity in C57BL/6 mouse assessed as effect on AST level in serum at 500 mg/kg, po administered as single dose and measured every day for 14 days; format: organism-based; details: in vivo, 336 h, time 14 day
[8] = Half life in male Sprague-Dawley rat at 2 mg/kg, iv by LC-MS/MS analysis; format: ADME, organism-based; details: in vivo
[9] = AUC (0 to t) in male Sprague-Dawley rat at 2 mg/kg, iv by LC-MS/MS analysis; format: ADME, organism-based; details: in vivo
[10] = Subacute toxicity in C57BL/6 mouse assessed as abnormal behavior at 100 mg/kg, po administered daily for 14 days and measured every day; format: organism-based; details: in vivo, 336 h, time 14 day
Candida albicans [11] = test: Induction of neutrophil-mediated antifungal immunity against Candida albicans SC5314 infected in mouse assessed as inhibition of CXCL1 protein expression in bone marrow at 50 to 100 mg/kg, po administered once a day for 3 days by ELISA; format: functional, organism-based; details: dose 50-100 mg/kg, time 3.0 day
[12] = Acute toxicity in C57BL/6 mouse assessed as change in heart weight at 500 mg/kg, po administered as single dose and measured after 14 days; format: organism-based; details: in vivo, 336 h, time 14 day
Neutrophil [13] = test: Downregulation of phosphorylated STAT3 protein level at Ser727 residue in curdlan induced mouse bone marrow neutrophils at 40 uM measured upto 60 mins by Western blot analysis; format: functional, cell-based
[14] = AUC (0 to t) in male Sprague-Dawley rat at 10 mg/kg, po by LC-MS/MS analysis; format: ADME, organism-based; details: in vivo
[15] = Subacute toxicity in C57BL/6 mouse assessed as change in spleen weight at 100 mg/kg, po administered daily for 14 days; format: organism-based; details: in vivo, 336 h, time 14 day
Candida albicans [16] = test: Induction of neutrophil-mediated antifungal immunity against Candida albicans SC5314 infected in mouse assessed as inhibition of CXCL2 protein expression in bone marrow at 50 to 100 mg/kg, po administered once a day for 3 days by ELISA; format: functional, organism-based; details: dose 50-100 mg/kg, time 3.0 day
[17] = Subacute toxicity in C57BL/6 mouse assessed as effect on AST level in serum at 100 mg/kg, po administered daily for 14 days and measured every day; format: organism-based; details: in vivo, 336 h, time 14 day
Candida albicans [18] = test: Antifungal activity against candida albicans SC5314 infected in mouse assessed as reduction in PD-L1 positive Ly6G-positive neutrophils in kidney at 200 mg/kg, po administered on day 1 and 3; format: functional, organism-based; details: time 1-3 day
Candida albicans [19] = test: Induction of neutrophil-mediated antifungal immunity against Candida albicans SC5314 infected in mouse assessed as reduction in PD-L1 positive Ly6G positive neutrophils in kidney at 50 to 100 mg/kg, po administered once a day for 3 days by flow cytometry analysis; format: functional, organism-based; details: dose 50-100 mg/kg, time 3.0 day
[20] = Acute toxicity in C57BL/6 mouse assessed as abnormal behavior at 500 mg/kg, po administered as single dose and measured every day for 14 days; format: organism-based; details: in vivo, 336 h, time 14 day
[21] = Cmax in male Sprague-Dawley rat at 10 mg/kg, po by LC-MS/MS analysis; format: ADME, organism-based; details: in vivo
[22] = Oral bioavailability in male Sprague-Dawley rat at 10 mg/kg by LC-MS/MS analysis; format: ADME, organism-based; details: in vivo
[23] = Subacute toxicity in C57BL/6 mouse assessed as change in kidney weight at 100 mg/kg, po administered daily for 14 days; format: organism-based; details: in vivo, 336 h, time 14 day
[24] = Cytotoxicity against mouse neutrophils assessed as reduction in cell viability incubated for 16 hrs by flow cytometry analysis; format: toxicity, cell-based, Neutrophil
[25] = MRT (0 to t) in male Sprague-Dawley rat at 10 mg/kg, po by LC-MS/MS analysis; format: ADME, organism-based; details: in vivo
Candida albicans [26] = test: Antifungal activity against candida albicans SC5314 infected in mouse assessed as reduction in fungal burden in kidney at 200 mg/kg, po administered on day 1 and 3; format: functional, organism-based; details: time 1-3 day
[27] = Subacute toxicity in C57BL/6 mouse assessed as body weight loss at 100 mg/kg, po administered daily for 14 days and measured every day; format: organism-based; details: in vivo, 336 h, time 14 day
[28] = AUC (0 to infinity) in male Sprague-Dawley rat at 2 mg/kg, iv by LC-MS/MS analysis; format: ADME, organism-based; details: in vivo
[29] = tested on: Polymorphonuclear neutrophil; test: Inhibition of fungal curdlan induced CXCL2 protein expression in mouse polymorphonuclear neutrophils at 40 uM incubated for 4 hrs by ELISA; format: functional, cell-based
[30] = Subacute toxicity in C57BL/6 mouse assessed as effect on urea level in serum at 100 mg/kg, po administered daily for 14 days and measured every day; format: organism-based; details: in vivo, 336 h, time 14 day
Candida albicans [31] = test: Induction of neutrophil-mediated antifungal immunity against Candida albicans SC5314 infected in mouse assessed as reduction in fungal burden in kidneys at 50 to 100 mg/kg, po administered once a day for 3 days; format: functional, organism-based; details: dose 50-100 mg/kg, time 3.0 day
[32] = MRT (0 to t) in male Sprague-Dawley rat at 2 mg/kg, iv by LC-MS/MS analysis; format: ADME, organism-based; details: in vivo
Candida albicans [33] = test: Antifungal activity against Candida albicans SC5314 assessed as inhibition of fungal growth at 0.25 to 128 ug/ml measured every 3 hrs for 24 hrs by absorbance based analysis; format: functional, organism-based; details: dose 0.25-128 µg/ml
[34] = Acute toxicity in C57BL/6 mouse assessed as animal death at 500 mg/kg, po administered as single dose and measured every day for 14 days; format: organism-based; details: in vivo, 336 h, time 14 day
[35] = Subacute toxicity in C57BL/6 mouse assessed as histopathological changes in liver at 100 mg/kg, po administered daily for 14 days; format: organism-based; details: in vivo, 336 h, time 14 day
Candida albicans [36] = test: Induction of neutrophil-mediated antifungal immunity against Candida albicans SC5314 infected in mouse assessed as reduction in PD-L1 positive Ly6G positive neutrophils in bone marrow at 50 to 100 mg/kg, po administered once a day for 3 days by flow cytometry analysis; format: functional, organism-based; details: dose 50-100 mg/kg, time 3.0 day
Neutrophil [37] = test: Induction of apoptosis in mouse neutrophils assessed as early apoptotic cells at 40 uM incubated for 16 hrs by Annexin V-FITC/PI staining based flow cytometry analysis (reference value: 26.9%); format: toxicity, cell-based
Neutrophil [38] = test: Potency index, ratio of ACT001 IC50 to test compound IC50 for inhibition of fungal curdlan induced PD-L1 expression in mouse neutrophils assessed as reduction in PD-L1 positive Ly6G positive neutrophils incubated for 16 hrs by flow cytometry analysis; format: functional

## C[C@@]1(O)CC[C@]23O[C@@]2(C)CC[C@@H]2[C@H](OC(=O)[C@H]2CS(=O)(=O)c2c(Cl)cccc2Cl)[C@@H]13
Neutrophil [1]
  Activity: Active
[2]
  Activity: Non-Toxic
Neutrophil [3]
  Activity: 2.24%
[4]
  Activity: Non-Toxic
[5]
  Activity: Non-Toxic
[6]
  Activity: Non-Toxic
[7]
  Activity: Non-Toxic
[8]
  half-life: 10.2 min
[9]
  AUC(0-t): 73.9 ng·h/mL
[10]
  Activity: Non-Toxic
Candida albicans [11]
  Activity: Active
[12]
  Activity: Non-Toxic
Neutrophil [13]
  Activity: Active
[14]
  AUC(0-t): 167 ng·h/mL
[15]
  Activity: Non-Toxic
Candida albicans [16]
  Activity: Active
[17]
  Activity: Non-Toxic
Candida albicans [18]
  Activity: Active
Candida albicans [19]
  Activity: Active
[20]
  Activity: Non-Toxic
[21]
  Cmax: 114 ng/mL
[22]
  bioavailability: 45.1%
[23]
  Activity: Non-Toxic
[24]
  IC50 at 16 h: > 320 µM
[25]
  MRT last: 104 min
Candida albicans [26]
  Activity: Active
[27]
  Activity: Non-Toxic
[28]
  AUC(0-inf): 75.4 ng·h/mL
[29]
  inhibition: Active
[30]
  Activity: Non-Toxic
Candida albicans [31]
  Activity: Active
[32]
  MRT last: 15 min
Candida albicans [33]
  Activity: inactive
[34]
  Activity: Non-Toxic
[35]
  Activity: Non-Toxic
Candida albicans [36]
  Activity: Active
Neutrophil [37]
  Activity: 28.5%
Neutrophil [38]
  Ratio IC50: 4.46
